Measurements published in patent US11306079B2, “3-(5-amino-pyrazin-2-yl)-benzenesulfonamide derivatives and related compounds as PI3K-gamma kinase inhibitors” (Incyte Corporation, priority 2017, dated 2022).
Structures can show the parent of a compound that is named as a salt.

Assays:
[1] = molecular target: PI3Kδ (p110δ/p85α) Recombinant Human Protein (Homo sapiens (Human), UniProt O00329); assay: PI3Kδ Scintillation Proximity Assay; type: biochemical; conditions: 20 μM PIP2, 2 μM ATP, 3.4 nM PI3Kδ, 120 min, room temperature
PI3Kδ (p110δ/p85α) Recombinant Human Protein, sequence (O00329 whole entry): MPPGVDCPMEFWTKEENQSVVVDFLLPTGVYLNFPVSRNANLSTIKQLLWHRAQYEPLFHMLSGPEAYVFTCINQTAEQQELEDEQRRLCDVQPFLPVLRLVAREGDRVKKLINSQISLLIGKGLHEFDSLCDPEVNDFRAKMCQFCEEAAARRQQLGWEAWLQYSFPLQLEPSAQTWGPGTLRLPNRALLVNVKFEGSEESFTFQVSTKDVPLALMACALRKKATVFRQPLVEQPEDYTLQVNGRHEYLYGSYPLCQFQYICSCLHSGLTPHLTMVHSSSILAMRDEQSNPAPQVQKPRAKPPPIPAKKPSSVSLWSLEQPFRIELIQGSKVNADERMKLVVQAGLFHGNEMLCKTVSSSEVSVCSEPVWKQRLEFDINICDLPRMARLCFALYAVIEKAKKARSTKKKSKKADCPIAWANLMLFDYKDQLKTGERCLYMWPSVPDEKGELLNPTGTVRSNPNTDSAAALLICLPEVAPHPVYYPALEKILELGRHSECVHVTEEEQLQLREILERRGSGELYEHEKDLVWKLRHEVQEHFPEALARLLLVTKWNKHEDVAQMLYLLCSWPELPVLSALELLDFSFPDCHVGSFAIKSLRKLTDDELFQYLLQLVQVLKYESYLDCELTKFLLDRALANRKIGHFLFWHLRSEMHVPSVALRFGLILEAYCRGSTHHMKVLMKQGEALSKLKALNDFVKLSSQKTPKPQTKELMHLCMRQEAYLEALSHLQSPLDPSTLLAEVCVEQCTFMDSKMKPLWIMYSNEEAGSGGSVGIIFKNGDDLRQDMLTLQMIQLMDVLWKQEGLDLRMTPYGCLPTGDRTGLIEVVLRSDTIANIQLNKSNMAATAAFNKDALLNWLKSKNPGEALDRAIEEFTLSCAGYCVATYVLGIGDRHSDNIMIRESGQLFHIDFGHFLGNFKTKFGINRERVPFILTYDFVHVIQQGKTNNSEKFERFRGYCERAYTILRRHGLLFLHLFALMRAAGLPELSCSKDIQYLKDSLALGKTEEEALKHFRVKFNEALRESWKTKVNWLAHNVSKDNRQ
PI3Kδ (p110δ/p85α) Recombinant Human Protein, sequence (P27986 whole entry partner): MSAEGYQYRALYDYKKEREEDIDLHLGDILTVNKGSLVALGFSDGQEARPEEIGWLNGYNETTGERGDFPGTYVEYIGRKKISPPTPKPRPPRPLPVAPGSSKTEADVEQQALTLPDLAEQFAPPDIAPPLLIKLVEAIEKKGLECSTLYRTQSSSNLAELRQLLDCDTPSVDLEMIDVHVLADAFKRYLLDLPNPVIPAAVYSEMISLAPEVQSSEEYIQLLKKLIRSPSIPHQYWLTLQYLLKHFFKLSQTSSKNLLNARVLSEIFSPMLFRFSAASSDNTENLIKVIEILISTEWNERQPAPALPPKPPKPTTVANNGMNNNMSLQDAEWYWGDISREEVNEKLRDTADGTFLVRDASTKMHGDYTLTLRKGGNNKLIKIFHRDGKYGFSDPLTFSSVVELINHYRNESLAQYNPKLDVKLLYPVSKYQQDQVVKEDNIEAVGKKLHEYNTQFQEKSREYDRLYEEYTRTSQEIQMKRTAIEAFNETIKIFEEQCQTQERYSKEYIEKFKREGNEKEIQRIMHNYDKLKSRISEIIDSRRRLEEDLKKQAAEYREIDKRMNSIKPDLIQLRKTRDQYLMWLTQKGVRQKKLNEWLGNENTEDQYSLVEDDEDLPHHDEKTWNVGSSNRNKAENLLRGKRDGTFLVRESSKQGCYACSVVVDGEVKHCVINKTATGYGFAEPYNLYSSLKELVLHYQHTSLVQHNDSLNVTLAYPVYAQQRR
Procedure, shortened: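 Radiometric read-out: 33P-labelled PIP3 product captured on WGA SPA beads and counted, with IC50 fitted from percent activity relative to DMSO control. Enzyme (3.4 nM) was incubated 120 min at room temperature with 20 μM PIP2 and 2 μM ATP at pH 6.7, 2% DMSO.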

[2] = tested on: Phosphorylated Ribosomal Protein S6 (RPS6) in THP-1 cells; assay: THP-1 RPS6 ELISA Assay; type: cell-based; conditions: Homo sapiens; serum starved THP-1 cells, 2 hours with compound, 10 nM MCP-1 for 15 minutes, Phospho-RPS6 ELISA; read-out: PI3Kγ_THP1_RPS6_ELISA IC50
Procedure, shortened: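 Phospho-RPS6 in lysates measured by ELISA at 450 nm, corrected at 540 nm, after MCP-1 challenge (10 nM, 15 min) of THP-1 cells that were starved overnight and exposed to test compound for 2 h at 37° C, 2×10^5 cells/well. Curve fit of percent inhibition gives IC50.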

[3] = molecular target: PI3Kγ (p110γ) Recombinant Human Protein (Homo sapiens (Human), UniProt P48736); assay: PI3K-γ Scintillation Proximity Assay; type: biochemical; conditions: 20 μM PIP2, 2 μM ATP, 13 nM PI3Kγ, 120 min, room temperature
PI3Kγ (p110γ) Recombinant Human Protein, sequence (P48736 whole entry): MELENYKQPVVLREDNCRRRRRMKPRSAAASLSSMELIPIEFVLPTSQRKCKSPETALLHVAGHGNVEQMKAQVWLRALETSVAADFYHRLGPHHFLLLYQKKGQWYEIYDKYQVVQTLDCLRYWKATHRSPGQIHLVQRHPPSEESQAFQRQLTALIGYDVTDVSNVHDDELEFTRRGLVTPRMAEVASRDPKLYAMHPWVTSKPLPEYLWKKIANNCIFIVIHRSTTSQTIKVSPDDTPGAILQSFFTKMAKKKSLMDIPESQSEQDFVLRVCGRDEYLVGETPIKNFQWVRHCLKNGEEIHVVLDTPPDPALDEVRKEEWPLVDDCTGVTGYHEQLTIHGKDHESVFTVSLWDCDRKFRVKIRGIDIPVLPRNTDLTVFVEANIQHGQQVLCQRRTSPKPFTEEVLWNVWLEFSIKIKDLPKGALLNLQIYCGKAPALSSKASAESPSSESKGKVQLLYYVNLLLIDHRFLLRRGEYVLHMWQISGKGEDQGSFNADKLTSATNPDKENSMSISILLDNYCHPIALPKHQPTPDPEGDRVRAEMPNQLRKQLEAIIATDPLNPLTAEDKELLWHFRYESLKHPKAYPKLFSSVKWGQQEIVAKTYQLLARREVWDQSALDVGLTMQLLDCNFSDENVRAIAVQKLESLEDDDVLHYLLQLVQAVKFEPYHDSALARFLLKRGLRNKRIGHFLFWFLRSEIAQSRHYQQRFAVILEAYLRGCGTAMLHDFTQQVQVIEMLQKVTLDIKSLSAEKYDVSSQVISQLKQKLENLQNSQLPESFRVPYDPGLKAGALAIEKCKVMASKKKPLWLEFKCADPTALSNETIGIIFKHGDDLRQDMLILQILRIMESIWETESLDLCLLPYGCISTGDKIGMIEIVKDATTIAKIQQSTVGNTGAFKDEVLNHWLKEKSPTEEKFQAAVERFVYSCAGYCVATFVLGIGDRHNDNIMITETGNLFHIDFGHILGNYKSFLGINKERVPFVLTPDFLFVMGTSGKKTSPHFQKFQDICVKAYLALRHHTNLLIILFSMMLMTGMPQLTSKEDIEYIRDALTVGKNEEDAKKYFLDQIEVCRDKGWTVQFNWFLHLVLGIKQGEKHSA
Procedure, shortened: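 Recombinant human p110γ (13 nM) phosphorylated 20 μM PIP2 with 2 μM ATP plus [γ-33P]ATP in 20 mM MOPS pH 6.7, 10 mM MgCl2, 5 mM DTT, 0.03% CHAPS, 2% DMSO, 120 min at room temperature. Radiolabelled product was captured on WGA SPA beads and counted. IC50 came from curves of percent solvent-control activity.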

Row | SMILES | IC50 [1] | IC50 [2] | IC50 [3]
1 | [2H]C([2H])([2H])c1ccc(S(=O)(=O)NC23CCC(C#N)(C2)C3)cc1-c1cnc(N)c(-c2cnc(C)o2)n1 [Example 66, 3-(5-Amino-6-(2-methyloxazol-5-yl)pyrazin-2-yl)-N-(4-cyanobicyclo[2.1.1]hexan-1-yl)-4-(methyl-d3)benzenesulfonamide trifluoroacetate salt] | ≤ 100 nM | ≤ 100 nM | ≤ 100 nM
2 | [2H]C([2H])([2H])c1ccc(S(=O)(=O)NC23CCC(C#N)(C2)C3)cc1-c1cnc(N)c(-c2cnc(N(C)C)nc2)n1 [Example 67, 3-(5-Amino-6-(2-(dimethylamino)pyrimidin-5-yl)pyrazin-2-yl)-N-(4-cyanobicyclo[2.1.1]hexan-1-yl)-4-(methyl-d3)benzenesulfonamide trifluoroacetate salt] | ≤ 500 nM | ≤ 100 nM | ≤ 100 nM
3 | [2H]C([2H])([2H])c1ccc(S(=O)(=O)NC23CCC(C#N)(C2)C3)cc1-c1cnc(N)c(-c2cnco2)n1 [Example 69, 3-(5-Amino-6-(oxazol-5-yl)pyrazin-2-yl)-N-(4-cyanobicyclo[2.1.1]hexan-1-yl)-4-(methyl-d3)benzenesulfonamide trifluoroacetate salt] | ≤ 100 nM | ≤ 100 nM | ≤ 100 nM
4 | [2H]C([2H])([2H])c1ccc(S(=O)(=O)NC23CCC(C#N)(C2)C3)cc1-c1cnc(N)c(-c2ncccn2)n1 [Example 70, 3-(5-Amino-6-(pyrimidin-2-yl)pyrazin-2-yl)-N-(4-cyanobicyclo[2.1.1]hexan-1-yl)-4-(methyl-d3)benzenesulfonamide trifluoroacetate salt] | < 2000 nM | ≥ 1000 nM | ≤ 100 nM
5 | [2H]C([2H])([2H])c1ccc(S(=O)(=O)NC23CCC(C#N)(C2)C3)cc1-c1cnc(N)c(-c2ncco2)n1 [Example 71, 3-(5-Amino-6-(oxazol-2-yl)pyrazin-2-yl)-N-(4-cyanobicyclo[2.1.1]hexan-1-yl)-4-(methyl-d3)benzenesulfonamide trifluoroacetate salt] | ≤ 500 nM | ≤ 500 nM | ≤ 100 nM
6 | [2H]C([2H])([2H])c1ccc(S(=O)(=O)NC23CCC(C#N)(C2)C3)cc1-c1cnc(N)c(-c2ccncn2)n1 [Example 72, 3-(5-Amino-6-(pyrimidin-4-yl)pyrazin-2-yl)-N-(4-cyanobicyclo[2.1.1]hexan-1-yl)-4-(methyl-d3)benzenesulfonamide trifluoroacetate salt] | ≤ 100 nM | ≤ 100 nM | ≤ 100 nM
7 | [2H]C([2H])([2H])c1ccc(S(=O)(=O)NC23CC(C#N)(C2)C3)cc1-c1cnc(N)c(-c2cnco2)n1 [Example 73, 3-(5-Amino-6-(oxazol-5-yl)pyrazin-2-yl)-N-(3-cyanobicyclo[1.1.1]pentan-1-yl)-4-(methyl-d3)benzenesulfonamide trifluoroacetate salt] | ≤ 100 nM | ≤ 100 nM | ≤ 100 nM
8 | [2H]C([2H])([2H])c1ccc(S(=O)(=O)NC23CCC(O)(C2)C3)cc1-c1cnc(N)c(-c2cnco2)n1 [Example 74, 3-(5-Amino-6-(oxazol-5-yl)pyrazin-2-yl)-N-(4-hydroxybicyclo[2.1.1]hexan-1-yl)-4-(methyl-d3)benzenesulfonamide trifluoroacetate salt] | ≤ 500 nM | ≤ 100 nM | ≤ 100 nM
9 | [2H]C([2H])([2H])c1ccc(S(=O)(=O)NC23CC(CO)(C2)C3)cc1-c1cnc(N)c(-c2cnco2)n1 [Example 75, 3-(5-Amino-6-(oxazol-5-yl)pyrazin-2-yl)-N-(3-(hydroxymethyl)bicyclo[1.1.1]pentan-1-yl)-4-(methyl-d3)benzenesulfonamide trifluoroacetate salt] | ≤ 500 nM | ≤ 100 nM | ≤ 100 nM
10 | [2H]C([2H])([2H])c1ccc(S(=O)(=O)NC23CC(C#N)(C2)C3)cc1-c1cnc(N)c(-c2ccnc(SC)n2)n1 [Example 76, 3-(5-Amino-6-(2-(methylthio)pyrimidin-4-yl)pyrazin-2-yl)-N-(3-cyanobicyclo[1.1.1]pentan-1-yl)-4-(methyl-d3)benzenesulfonamide] | ≤ 100 nM | ≤ 100 nM | ≤ 100 nM
11 | [2H]C([2H])([2H])c1ccc(S(=O)(=O)NC23CCC(O)(C2)C3)cc1-c1cnc(N)c(-c2ccnc(SC)n2)n1 [Example 77, 3-(5-Amino-6-(2-(methylthio)pyrimidin-4-yl)pyrazin-2-yl)-N-(4-hydroxybicyclo[2.1.1]hexan-1-yl)-4-(methyl-d3)benzenesulfonamide] | ≤ 100 nM | ≤ 100 nM | ≤ 100 nM
12 | [2H]C([2H])([2H])c1ccc(S(=O)(=O)NC23CC(CO)(C2)C3)cc1-c1cnc(N)c(-c2ccnc(SC)n2)n1 [Example 78, 3-(5-Amino-6-(2-(methylthio)pyrimidin-4-yl)pyrazin-2-yl)-N-(3-(hydroxymethyl)bicyclo[1.1.1]pentan-1-yl)-4-(methyl-d3)benzenesulfonamide] | ≤ 100 nM | ≤ 100 nM | ≤ 100 nM
13 | [2H]C([2H])([2H])c1ccc(S(=O)(=O)NC23CC(C#N)(C2)C3)cc1-c1cnc(N)c(-c2ccncn2)n1 [Example 79, 3-(5-Amino-6-(pyrimidin-4-yl)pyrazin-2-yl)-N-(3-cyanobicyclo[1.1.1]pentan-1-yl)-4-(methyl-d3)benzenesulfonamide Trifluoroacetate Salt] | ≤ 100 nM | ≤ 100 nM | ≤ 100 nM
14 | [2H]C([2H])([2H])c1ccc(S(=O)(=O)NC23CCC(O)(C2)C3)cc1-c1cnc(N)c(-c2ccncn2)n1 [Example 80, 3-(5-Amino-6-(pyrimidin-4-yl)pyrazin-2-yl)-N-(4-hydroxybicyclo[2.1.1]hexan-1-yl)-4-(methyl-d3)benzenesulfonamide trifluoroacetate salt] | ≤ 100 nM | ≤ 100 nM | ≤ 100 nM
15 | [2H]C([2H])([2H])c1ccc(S(=O)(=O)NC23CC(CO)(C2)C3)cc1-c1cnc(N)c(-c2ccncn2)n1 [Example 81, 3-(5-Amino-6-(pyrimidin-4-yl)pyrazin-2-yl)-N-(3-(hydroxymethyl)bicyclo[1.1.1]pentan-1-yl)-4-(methyl-d3)benzenesulfonamide trifluoroacetate salt] | ≤ 100 nM | ≤ 500 nM | ≤ 100 nM
16 | Cc1ccc(S(=O)(=O)NC23CCC(C#N)(C2)C3)cc1-c1cnc(N)c(-c2cn(C)nc2C)c1 [Example 82, 3-(6-Amino-5-(1,3-dimethyl-1H-pyrazol-4-yl)pyridin-3-yl)-N-(4-cyanobicyclo[2.1.1]hexan-1-yl)-4-methylbenzenesulfonamide] | ≤ 500 nM | ≤ 1000 nM | ≤ 100 nM
17 | Cc1ncc(-c2cc(-c3cc(S(=O)(=O)NC45CCC(C#N)(C4)C5)ccc3C)cnc2N)s1 [Example 85, 3-(6-amino-5-(2-methylthiazol-5-yl)pyridin-3-yl)-N-(4-cyanobicyclo[2.1.1]hexan-1-yl)-4-methylbenzenesulfonamide] | ≤ 100 nM | ≤ 100 nM | ≤ 100 nM
18 | Cc1ncc(-c2cc(-c3cc(S(=O)(=O)NC45COC(CO)(C4)C5)ccc3C)cnc2N)s1 [Example 86, 3-(6-amino-5-(2-methylthiazol-5-yl)pyridin-3-yl)-N-(1-(hydroxymethyl)-2-oxabicyclo[2.1.1]hexan-4-yl)-4-methylbenzenesulfonamide] | ≤ 500 nM | ≤ 500 nM | ≤ 100 nM
19 | Cc1ncc(-c2cc(-c3cc(S(=O)(=O)NC45CC(CO)(C4)C5)ccc3C)cnc2N)s1 [Example 87, 3-(6-amino-5-(2-methylthiazol-5-yl)pyridin-3-yl)-N-(3-(hydroxymethyl)bicyclo[1.1.1]pen-tan-1-yl)-4-methylbenzenesulfonamide] | ≤ 100 nM | ≤ 100 nM | ≤ 100 nM
20 | Cc1ccc(S(=O)(=O)NC23COC(CO)(C2)C3)cc1-c1cnc(N)c(-c2cnc(C3CC3)s2)c1 [Example 89, 3-(6-amino-5-(2-cyclopropylthiazol-5-yl)pyridin-3-yl)-N-(1-(hydroxymethyl)-2-oxabicyclo[2.1.1]hexan-4-yl)-4-methylbenzenesulfonamide] | ≤ 500 nM | ≤ 100 nM | ≤ 100 nM
21 | [2H]C([2H])([2H])c1ccc(S(=O)(=O)NC23CCN(CC2)C3)cc1-c1cnc(N)c(-n2cncn2)n1 [Example 90, 3-(5-amino-6-(1H-1,2,4-triazol-1-yl)pyrazin-2-yl)-N-(1-azabicyclo[2.2.1]heptan-4-yl)-4-(methyl-d3)benzenesulfonamide] | ≤ 100 nM | ≤ 100 nM | ≤ 100 nM
22 | [2H]C([2H])([2H])c1ccc(S(=O)(=O)NC23CCN(CC2)C3)cc1-c1cnc(N)c(-c2cnc(C)s2)n1 [Example 91, 3-(5-amino-6-(2-methylthiazol-5-yl)pyrazin-2-yl)-N-(1-azabicyclo[2.2.1]heptan-4-yl)-4-(methyl-d3)benzenesulfonamide] | ≤ 100 nM | ≤ 100 nM | ≤ 100 nM
